Where two headings read alike, the source gives them in different places.
Tests used:
[1] = tested on: human lymphoblastic leukemia cell line (CCRF-CEM); experiment: in vitro cytotoxicity, PrestoBlue assay; assay type: cell-based; details: read-out: IC50 CCRF-CEM
Protocol: (§1) All representative compounds of Formulae (I-A) and (I-B) were first evaluated for their in vitro cytotoxicity to human lymphoblastic leukemia cell line (CCRF-CEM) and its vinblastine-resistant sub-cell line (CCRF-CEM/VBL) (see Table 1).
(§2) After a 72-hr incubation in various concentrations of the newly synthesized compounds, the cytotoxic effects of them to all cell lines were determined by the PrestoBlue®(Invitrogen) assay using a microplate spectrophotometer. Briefly, at the end of treatment, an aliquot of PrestoBlue® solution was added and then cells were incubated at 37° C. for 1-2 hr. The absorbance at 570 and 600 nm was measured with a microplate reader. […] The ICso is defined by the concentration required to inhibit tumor cell growth by 50%. Data represent the mean±STDEV of three to six independent experiments for each compound.

colon cancer HCT-116 = experiment: in vitro cytotoxicity, PrestoBlue assay; assay type: cell-based, human; details: Table 2
Protocol: as §1, §2

[2] = tested on: non-small cell lung cancer H460; experiment: in vitro cytotoxicity, PrestoBlue assay; assay type: cell-based, human; details: Table 2
Protocol: as §1, §2

pancreatic cancer PacaS1 = experiment: in vitro cytotoxicity, PrestoBlue assay; assay type: cell-based, human; details: Table 2
Protocol: as §1, §2

[3] = tested on: vinblastine-resistant sub-cell line (CCRF-CEM/VBL); experiment: in vitro cytotoxicity, PrestoBlue assay; assay type: cell-based, human; details: for IC50: read-out: IC50 CEM/VBL; for resistance factor (IC50 CEM/VBL vs IC50 of the parent cell line): number in brackets
Protocol: as §1, §2

[4] = tested on: small cell lung cancer H526; experiment: in vitro cytotoxicity, PrestoBlue assay; assay type: cell-based, human; details: read-out: IC50 H526
H1417 = experiment: in vitro cytotoxicity to SCLC cells; assay type: cell-based, human; details: Table 3
Protocol: as §2

H146 = experiment: in vitro cytotoxicity to SCLC cells; assay type: cell-based, human; details: Table 3
Protocol: as §2

H211 = experiment: in vitro cytotoxicity to SCLC cells; assay type: cell-based, human; details: Table 3
Protocol: as §2

H82 = experiment: in vitro cytotoxicity to SCLC cells; assay type: cell-based, human; details: Table 3
Protocol: as §2

[5] = 72-hr incubation, mean ± STDEV of three to six experiments
[6] = Homo sapiens, CCRF-CEM, footnote d: IC50 values in nM

Compound	IC50 [1, 5]	IC50 [3, 5]	resistance factor (IC50 CEM/VBL vs IC50 of the parent cell line) [3]	other results
Cc1c(CO)c(CO)c2c3ccccc3c(N3CCOCC3)nn12 [BO-2571, (3-Methyl-6-morpholinopyrrolo[2,1-α]phthalazine-1,2-diyl)dimethanol]	760 ± 30 nM	560 ± 60 nM	0.74 ×	IC50 (colon cancer HCT-116): 1670 ± 180 nM; IC50 [2]: 2640 ± 520 nM; IC50 Paca SI (pancreatic cancer PacaS1): 2160 ± 90 nM; IC50 ([4]; Table 2): 100 ± 10 nM
CCNC(=O)OCc1c(COC(=O)NCC)c2c3ccccc3c(N3CCOCC3)nn2c1C [BO-2573, (3-Methyl-6-morpholinopyrrolo[2,1-a]phthalazine-1,2-diyl)bis(methylene)bis(ethylcarbamate)]	690 ± 220 nM	450 ± 30 nM	0.65 ×	IC50 (colon cancer HCT-116): 1700 ± 210 nM; IC50 [2]: 2480 ± 730 nM; IC50 Paca SI (pancreatic cancer PacaS1): 17230 ± 3480 nM; IC50 ([4]; Table 2): 210 ± 30 nM
Cc1c(COC(=O)NC(C)C)c(COC(=O)NC(C)C)c2c3ccccc3c(N3CCOCC3)nn12 [BO-2574]	1170 ± 180 nM	960 ± 160 nM	0.82 ×	–
CCNC(=O)OCc1c(COC(=O)NCC)c2c3ccccc3c(N3CCOCC3)nn2c1CC [BO-2625]	3440 ± 820 nM	5110 ± 910 nM	1.48 ×	–
CCc1c(COC(=O)NC(C)C)c(COC(=O)NC(C)C)c2c3ccccc3c(N3CCOCC3)nn12 [BO-2626]	3680 ± 250 nM	1580 ± 200 nM	0.43 ×	–
COc1ccc(-c2c(CO)c(CO)c3c4ccccc4c(N4CCOCC4)nn23)cc1 [BO-2629]	6630 ± 1740 nM	5750 ± 620 nM	0.86 ×	IC50 (colon cancer HCT-116): 5200 ± 430 nM; IC50 [2]: 18700 ± 1810 nM; IC50 Paca SI (pancreatic cancer PacaS1): 36630 ± 1040 nM; IC50 ([4]; Table 2): 1950 ± 260 nM
CCNC(=O)OCc1c(COC(=O)NCC)c2c3ccccc3c(N3CCOCC3)nn2c1-c1ccc(OC)cc1 [BO-2630]	6120 ± 880 nM	7210 ± 250 nM	1.18 ×	–
COc1ccc(-c2c(COC(=O)NC(C)C)c(COC(=O)NC(C)C)c3c4ccccc4c(N4CCOCC4)nn23)cc1 [BO-2631]	2850 ± 1520 nM	3070 ± 430 nM	1.07 ×	–
Cc1c(COC(=O)NC(C)C)c(COC(=O)NC(C)C)c2c3ccccc3c(N3CCCC3)nn12 [BO-2717]	4110 ± 150 nM	3160 ± 180 nM	0.77 ×	–
Cc1c(CO)c(CO)c2c3ccccc3c(N3CCCCC3)nn12 [BO-2720]	1040 ± 120 nM	1330 ± 130 nM	1.28 ×	–
CCNC(=O)OCc1c(COC(=O)NCC)c2c3ccccc3c(N3CCCCC3)nn2c1C [BO-2721]	1280 ± 90 nM	1230 ± 200 nM	0.96 ×	–
Cc1c(COC(=O)NC(C)C)c(COC(=O)NC(C)C)c2c3ccccc3c(N3CCCCC3)nn12 [BO-2722]	1920 ± 110 nM	1730 ± 90 nM	0.90 ×	–
CCNC(=O)OCc1c(COC(=O)NCC)c2c3cc4ccccc4cc3c(N3CCOCC3)nn2c1C [BO-2756]	310 ± 20 nM	320 ± 40 nM	1.03 ×	IC50 ([4]; Table 3): 150 ± 87 nM; IC50 (H1417): 810 ± 20 nM; IC50 (H146): 1510 ± 830 nM; IC50 (H211): 130 ± 100 nM; IC50 (H82): 740 ± 390 nM
CCNC(=O)OCc1c(COC(=O)NCC)c2c3cc4ccccc4cc3c(N3CCCCC3)nn2c1C [BO-2757]	950 ± 50 nM	1200 ± 140 nM	1.26 ×	IC50 ([4]; Table 3): 540 ± 180 nM; IC50 (H1417): 3940 ± 110 nM; IC50 (H146): 4190 ± 700 nM; IC50 (H211): 1030 ± 250 nM; IC50 (H82): 1580 ± 10 nM
CCNC(=O)OCc1c(COC(=O)NCC)c2c3cc4ccccc4cc3c(N3CCCC3)nn2c1C [BO-2763, (3-Methyl-6-(pyrrolidin-1-yl)benzo[g]pyrrolo[2,1-α]phthalazine-1,2-diyl)-bis(methylene) bis(ethylcarbamate)]	420 ± 70 nM	250 ± 60 nM	0.59 ×	IC50 ([4]; Table 3): 180 ± 60 nM; IC50 (H1417): 1150 ± 150 nM; IC50 (H146): 2160 ± 500 nM; IC50 (H211): 680 ± 590 nM; IC50 (H82): 1580 ± 1370 nM
CCNC(=O)OCc1c(COC(=O)NCC)c2c3cc4ccccc4cc3c(N(C)C)nn2c1C [BO-2772, (6-(Dimethylamino)-3-methylbenzo[g]pyrrolo[2,1-α]phthalazine-1,2-diyl)-bis(methylene) bis(ethylcarbamate)]	138 ± 8 nM	99 ± 6 nM	0.71 ×	IC50 ([4]; Table 3): 270 ± 310 nM; IC50 (H1417): 1010 ± 490 nM; IC50 (H146): 1670 ± 240 nM; IC50 (H211): 320 ± 200 nM; IC50 (H82): 520 ± 160 nM
Cc1c(CO)c(CO)c2c3ccccc3c(N(C)C)nn12 [BO-2785]	3330 ± 390 nM	2940 ± 260 nM	0.88 ×	–
CCNC(=O)OCc1c(COC(=O)NCC)c2c3ccccc3c(N(C)C)nn2c1C [BO-2786]	730 ± 50 nM	550 ± 60 nM	0.75 ×	IC50 (colon cancer HCT-116): 2450 ± 650 nM; IC50 [2]: 3470 ± 470 nM; IC50 Paca SI (pancreatic cancer PacaS1): 8010 ± 1400 nM; IC50 ([4]; Table 2): 570 ± 90 nM
Cc1c(COC(=O)NC(C)C)c(COC(=O)NC(C)C)c2c3ccccc3c(N(C)C)nn12 [BO-2787]	1540 ± 220 nM	970 ± 170 nM	0.63 ×	–
CCNC(=O)OCc1c(COC(=O)NCC)c2c3cc4ccccc4cc3c(N3CCC(N4CCCCC4)CC3)nn2c1C [BO-2793]	57 ± 4 nM	104 ± 28 nM	1.82 ×	IC50 ([4]; Table 3): 10 ± 3 nM; IC50 (H1417): 130 ± 90 nM; IC50 (H146): 310 ± 210 nM; IC50 (H211): 60 ± 20 nM; IC50 (H82): 90 ± 40 nM
N.N.O=C([O-])C1(C(=O)[O-])CCC1.[Pt+2] [Carboplatin, reference compound]	–	–	–	IC50 ([4]; Table 3): 6430 ± 140 nM; IC50 (H1417): 8640 ± 1930 nM; IC50 (H146): 37100 ± 6380 nM; IC50 (H211): 13900 ± 1560 nM
COc1cc([C@@H]2c3cc4c(cc3[C@@H](O[C@@H]3O[C@@H]5CO[C@@H](C)O[C@H]5[C@H](O)[C@H]3O)[C@H]3COC(=O)[C@H]23)OCO4)cc(OC)c1O [Etoposide, reference compound]	–	–	–	IC50 ([4]; Homo sapiens, NCI-H526, Table 3): 200 ± 260 nM; IC50 (H1417; Homo sapiens, NCI-H1417): 4530 ± 3180 nM; IC50 (H146; Homo sapiens, NCI-H146): 2910 ± 170 nM; IC50 (H211; Homo sapiens, NCI-H211): 70 ± 10 nM; IC50 (H82; Homo sapiens, NCI-H82): 1080 ± 420 nM
CC[C@]1(O)C[C@@H]2CN(CCc3c([nH]c4ccccc34)[C@@](C(=O)OC)(c3cc4c(cc3OC)N(C)[C@H]3[C@@](O)(C(=O)OC)[C@H](OC(C)=O)[C@]5(CC)C=CCN6CC[C@]43[C@@H]65)C2)C1 [Vinblastine, reference compound]	–	–	278.3 ×	IC50 [1, 6]: 1.41 ± 0.1 nM; IC50 [3, 6]: 392 ± 44.8 nM

Source: US11066412B2, “Substituted pyrrolo[2,1-a]phthalazines and benzo[g]pyrrolo[2,1-a]phthalazines for the treatment of cancer” (Academia Sinica, priority 2017, dated 2021)
